Where two headings read alike, the source gives them in different places.
Assays:
[1] = Solubility in aqueous solutions (Table 3); assay type: physicochemical; conditions: aqueous solution
Experimental: The skilled person understands that the pH of the gastrointestinal tract changes along its length. […] For more detail see, for example, Measurement of gastrointestinal pH profiles in normal ambulant human subjects, Gut. […] Improved solubility is expected to result in improved absorption, and therefore improved oral bioavailability.
In an embodiment prodrugs of the invention are administered intravenously. High prodrug solubility is advantageous in order to reduce the volume of solution administered to the patient, and to reduce the risk of damage to the circulatory system. Solubility of >10 mg/mL is preferred.

[2] = Pharmacokinetics: exposure of tonabersat in plasma after oral or intravenous dosing of prodrugs to rats; assay type: in vivo; conditions: fasted male Sprague Dawley rats; for % exposure of tonabersat after dosing the prodrugs of the invention via: Intravenous dosing (iv): compared to equimolar amount of tonabersat (0.78 mg/kg intravenous dosing); for % exposure of tonabersat after dosing the prodrugs of the invention via: Oral dosing (po): compared to equimolar amount of tonabersat (5.00 mg/kg oral dosing)
Experimental: Example Prodrugs of the claimed invention were dosed either intravenously or orally to fasted male Sprague Dawley rats. The rats underwent surgery for jugular vein cannulation 48 h prior to dosing. Following dosing, 0.25 mL blood samples were taken via the cannulae at 0, 5, 10, 20, 30, 45, 60, 120, 240 & 360 min in EDTA coated tubes. Tubes were spun at 13,000 rpm for 4 min and 100 ul of supernatant taken immediately and stored at −80° C. prior to analysis. Plasma samples were analysed by LC-MS/MS following extraction by protein precipitation, and levels of parent prodrug and tonabersat were measured by MRM (Multiple Reaction Monitoring) analysis against an extracted calibration curve of plasma samples spiked with the Example prodrug and tonabersat.
The exposure of tonabersat in plasma following dosing of the prodrugs of the invention was compared directly to the exposure observed following dosing of an equimolar amount of tonabersat under analogous assay conditions (5.00 mg/kg oral dosing or 0.78 mg/kg intravenous dosing). In an embodiment prodrugs of the present invention have >10% exposure of tonabersat obtained following either oral or intravenous dosing of the prodrug to a human or animal subject, compared to the exposure obtained from dosing an equimolar amount of tonabersat itself. In an embodiment the exposure of tonabersat following dosing of the prodrugs is >20%, or >30%, or >40%, or >50%, or preferably >70% compared to the exposure obtained from dosing an equimolar amount of tonabersat itself.

[3] = target: T1, hERG K+ channel (Homo sapiens, UniProt Q12809); test: hERG assay, IonWorks patch clamp electrophysiology; assay type: cell-based; conditions: human, pH 7.3; 11 uM; Chinese Hamster Lung cell line stably expressing hERG
T1 construct: a Chinese Hamster Lung cell line stably expressing the full length hERG channel; expressed in transfected cells; host or cells: Chinese Hamster Lung cell line
Experimental: (§1) Compounds of the invention were tested for inhibition of the human ether a go-go related gene (hERG) K^+ channel using IonWorks patch clamp electrophysiology. 8 Point concentration-response curves were generated on two occasions using 3-fold serial dilutions from the maximum assay concentration (33 uM). Electrophysiological recordings were made from a Chinese Hamster Lung cell line stably expressing the full length hERG channel. Single cell ion currents were measured in the perforated patch clamp configuration (100 ug/mL amphoterocin) at room temperature using an IonWorks Quattro instrument. The internal solution contained 140 mM KCl, 1 mM MgCl2, 1 mM EGTA and 20 mM HEPES and was buffered to pH 7.3. The external solution contained 138 mM NaCl, 2.7 mM KCl, 0.9 mM CaCl2, 0.5 mM MgCl2, 8 mM Na2HPO4 and 1.5 mM KH2PO4, and was buffered to pH 7.3. Cells were clamped at a holding potential of […] for 30 s and then stepped to +40 mV for 1 s. This was followed by a hyperpolarising step of 1 s to […] to evoke the hERG tail current. This sequence was repeated 5 times at a frequency of 0.25 Hz. Currents were measured from the tail step at the 5th pulse, and referenced to the holding current. Compounds were incubated for 6-7 min prior to a second measurement of the hERG signal using an identical pulse train. A minimum of 17 cells were required for each pIC50 curve fit. A control compound (quinidine) was used.

[4] = target: T2, human ether a go-go related gene (hERG) K+ channel (Homo sapiens, UniProt Q12809); test: hERG assay, IonWorks patch clamp electrophysiology; assay type: cell-based; conditions: Chinese Hamster Lung cell line stably expressing hERG; IonWorks Quattro
T2 construct: a Chinese Hamster Lung cell line stably expressing the full length hERG channel; expressed in transfected cells; host or cells: Chinese Hamster Lung cell line
Experimental: as §1

[5] = system: unique stereo-selective site in rat and human brains; conditions: cited from earlier work
[6] = system: unique stereo-selective site in rat and human brains; conditions: cited from earlier work; remark: listed apart in the source
[7] = system: high K+ evoked CSD; conditions: cats; cited from earlier work
[8] = system: high K+ evoked CSD; conditions: rats; cited from earlier work

T1 sequence (Q12809 whole entry): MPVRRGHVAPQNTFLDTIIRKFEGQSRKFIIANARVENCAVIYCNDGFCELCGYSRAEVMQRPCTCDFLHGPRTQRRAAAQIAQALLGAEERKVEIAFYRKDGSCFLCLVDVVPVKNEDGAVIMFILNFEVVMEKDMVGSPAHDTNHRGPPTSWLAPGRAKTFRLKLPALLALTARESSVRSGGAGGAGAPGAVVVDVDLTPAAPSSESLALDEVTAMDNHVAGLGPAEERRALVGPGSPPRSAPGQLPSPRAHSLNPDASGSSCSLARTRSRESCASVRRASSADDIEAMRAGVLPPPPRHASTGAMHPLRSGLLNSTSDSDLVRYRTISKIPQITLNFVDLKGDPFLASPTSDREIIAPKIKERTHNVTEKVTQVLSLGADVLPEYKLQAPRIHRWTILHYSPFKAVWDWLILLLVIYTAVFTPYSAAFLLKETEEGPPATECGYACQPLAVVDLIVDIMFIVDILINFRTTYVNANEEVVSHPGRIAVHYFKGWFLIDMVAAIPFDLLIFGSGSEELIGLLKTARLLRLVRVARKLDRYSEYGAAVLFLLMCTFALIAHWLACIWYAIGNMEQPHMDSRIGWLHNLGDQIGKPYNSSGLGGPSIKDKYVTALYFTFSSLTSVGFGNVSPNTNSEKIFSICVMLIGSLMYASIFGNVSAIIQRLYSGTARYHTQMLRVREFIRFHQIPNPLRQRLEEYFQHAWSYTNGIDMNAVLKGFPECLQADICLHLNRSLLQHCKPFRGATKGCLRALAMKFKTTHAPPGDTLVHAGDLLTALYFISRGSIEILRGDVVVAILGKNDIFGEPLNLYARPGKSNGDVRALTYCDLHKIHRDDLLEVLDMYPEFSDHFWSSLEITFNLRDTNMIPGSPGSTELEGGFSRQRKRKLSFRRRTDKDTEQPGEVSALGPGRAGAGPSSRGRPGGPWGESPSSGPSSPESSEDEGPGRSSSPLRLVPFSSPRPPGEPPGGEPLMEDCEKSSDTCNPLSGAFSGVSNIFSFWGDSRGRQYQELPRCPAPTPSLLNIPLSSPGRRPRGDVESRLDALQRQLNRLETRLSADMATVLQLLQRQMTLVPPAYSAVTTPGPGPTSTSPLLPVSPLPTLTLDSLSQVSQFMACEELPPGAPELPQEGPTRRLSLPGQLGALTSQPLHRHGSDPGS
T2 sequence (Q12809 whole entry): as above

Structure (SMILES) | % exposure of tonabersat after dosing the prodrugs of the invention via: Intravenous dosing (iv) [2] | % exposure of tonabersat after dosing the prodrugs of the invention via: Oral dosing (po) [2] | solubility ([1]; aqueous buffer, pH not given) [µg/mL] | inhibition at 11 µM [3] [%] | IC50 [4] [µM] | further results
CC(=O)c1ccc2c(c1)[C@H](NC(=O)c1ccc(F)c(Cl)c1)[C@H](OC(=O)OCCN1CCCCC1)C(C)(C)O2 [Example 30, (3S,4S)-6-Acetyl-4-[(3-chloro-4-fluorobenzene)amido]-2,2-dimethyl-3,4-dihydro-2H-1-benzopyran-3-yl 2-(piperidin-1-yl)ethyl carbonate] |  |  |  |  | 7 | 
CC(=O)c1ccc2c(c1)[C@H](NC(=O)c1ccc(F)c(Cl)c1)[C@H](OC(=O)OCCN(C)C)C(C)(C)O2 [Example 1, (3S,4S)-6-Acetyl-4-[(3-chloro-4-fluorobenzene)amido]-2,2-dimethyl-3,4-dihydro-2H-1-benzopyran-3-yl 2-(dimethylamino)ethyl carbonate] |  |  | < 1000 | 25 | > 20 | 
CC(=O)c1ccc2c(c1)[C@H](NC(=O)c1ccc(F)c(Cl)c1)[C@H](O)C(C)(C)O2 [Tonabersat, N-[(3S,4S)-6-Acetyl-3-hydroxy-2,2-dimethyl-3,4-dihydro-2H-1-benzopyran-4-yl]-3-chloro-4-fluorobenzamide] |  |  |  |  |  | binding affinity to brain site [5]: high affinity; binding affinity to brain site [6]: high affinity; inhibition of high K+ evoked CSD [7]: inhibits; inhibition of high K+ evoked CSD [8]: inhibits

Second part, led by results:

% exposure of tonabersat after dosing the prodrugs of the invention via: Intravenous dosing (iv) [2] | % exposure of tonabersat after dosing the prodrugs of the invention via: Oral dosing (po) [2] | solubility ([1]; aqueous buffer, pH not given) [µg/mL] | Structure (SMILES) | inhibition at 11 µM [3] [%] | IC50 [4] [µM] | further results
<LLOQ | <LLOQ |  | CC(=O)c1ccc2c(c1)[C@H](NC(=O)c1ccc(F)c(Cl)c1)[C@H](OC(=O)N1CCC(N3CCCCC3)CC1)C(C)(C)O2.Cl [Example 18, (3S,4S)-6-Acetyl-4-[(3-chloro-4-fluorobenzene)amido]-2,2-dimethyl-3,4-dihydro-2H-1-benzopyran-3-yl 4-(piperidin-1-yl)piperidine-1-carboxylate hydrochloride] | 28 |  | solubility ([1]; pH 6.3, aqueous buffer): > 10000 µg/mL
<LLOQ | <LLOQ |  | CC(=O)c1ccc2c(c1)[C@H](NC(=O)c1ccc(F)c(Cl)c1)[C@H](OC(=O)N[C@@H](CCCCN)C(=O)O)C(C)(C)O2.Cl [Example 9, (2S)-2-[({[(3S,4S)-6-acetyl-4-[(3-chloro-4-fluorobenzene)amido]-2,2-dimethyl-3,4-dihydro-2H-1-benzopyran-3-yl]oxy}carbonyl)amino]-6-aminohexanoic acid hydrochloride] | 8 |  | solubility ([1]; pH 4.9, aqueous buffer): 10000 µg/mL
 |  | < 1000 | CC(=O)c1ccc2c(c1)[C@H](NC(=O)c1ccc(F)c(Cl)c1)[C@H](OC(=O)OCCN1CCOCC1)C(C)(C)O2 [Example 4, (3S,4S)-6-Acetyl-4-[(3-chloro-4-fluorobenzene)amido]-2,2-dimethyl-3,4-dihydro-2H-1-benzopyran-3-yl 2-(morpholin-4-yl)ethyl carbonate] |  | 9.8 | 

— patent US20160016929A1, “PRO-DRUG COMPOUNDS” (PROXIMAGEN LIMITED, priority 2013, published 2016)
